{"source": "patent EP0429333B1", "about": "“Process for producing oxazopyrroloquinolines, novel oxazopyrroloquinolines, and use of oxazopyrroloquinolines” (priority 1989, dated 1991)", "key": {"Acute toxicity test": {"test": "Acute toxicity test", "conditions": "mouse, in vivo, ip", "protocol": "(§1) (1) Acute toxicity test: • (i) To male SPF-ICR mice of 5 weeks old (supplied by Charles River Co.) were intraperitoneally administered PQQ·2Na and OPQs in the dosages of 20, 40, 80, 160 and 200 mg/kg body weight of mouse, respectively and they were bred at 25°C for 14 days. OPQ, 1-methylpropyl OPQ, 2-methylthioethyl OPQ, and benzyl OPQ were used as the OPQs. One group consisted of 8 mice. […] One group consisted of 8 mice. […] They were bred at 25°C for 14 days. One group consisted of eight mice. […] (2) Toxicity to kidney (i) Toxicity to kidney determined by urine examination: In the same manner as in the acute toxicity test, PQQ·2Na and OPQs were respectively intraperitoneally administered to mice and these mice were bred. Urine was collected every day and concentration of glucose in urine was obtained using Uristex II (manufactured by Miles·Sankyo Co.). […]"}, "male SPF-ICR mice": {"tested_on": "male SPF-ICR mice", "test": "Acute toxicity test", "protocol": "as §1"}, "[1]": {"target": "aldose reductase of kidney (Canis lupus familiaris, UniProt A0A8I3P2L6)", "test": "Inhibitory effect on aldose reductase of kidney", "type": "biochemical, dog", "conditions": "read-out: Degree of inhibition for aldose reductase (%)", "protocol": "Medulla of kidney of dog was homogenized with 10mM phosphoric acid buffer (pH 7.0) containing 2mM dithiothreitol in an amount of four times the volume of kidney medulla and subjected to centrifugation. The supernatant liquid was purified by affinity chromatography, gel filtration and chromatofocusing to obtain electrophoretically homogeneous aldose reductase. 0.05 ml of 3mM NADPH, 0.1 ml of DL-glyceraldehyde and 0.04 ml of distilled water were added to 0.8 ml of 0.1M phosphoric acid buffer (pH 6.2) and left to stand at 25°C for 3 minutes. Then, 0.01 ml of the aldose reductase solution was added thereto to start reaction and decreasing of absorbance of 340 nm was measured at 25°C with time. Amount of enzyme which consumes 1 µmole of NADPH for 1 minute was taken as 1 unit."}, "[2]": {"tested_on": "carbon tetrachloride (CCl4)-induced liver diseases", "test": "Pharmacological activity on carbon tetrachloride-induced liver diseases", "type": "in vivo, SD rats", "conditions": "CCl4 1 ml/kg rat; for GPT: Table 26: CCl4 only 1521, no administration 24; for Total bilirubin: Table 26: CCl4 only 1.5, no administration 0.9; for GOT: Table 26: CCl4 only 3266, no administration 140", "protocol": "Twentyfive SD rats (male, 7 weeks old, body weight: about 220 g; supplied by Japan Charles River Co.) were divided to five groups (A-E) each consisting of five rats.\nAll rats were fasted for 16 hours and 1.1 ml of solutions containing 0.4 mg/ml, 1.0 mg/ml and 2.0 mg/ml of OPQ were intraperitoneally administered to the rats of groups C, D and E, respectively and furthermore, after 40 minutes, OPQ in the same dosage as above was intraperitoneally administered, respectively. In these cases, OPQ was used as a solution in physiological saline. To the rats of group B was intraperitoneally administered 1.1 ml of physiological saline in place of the OPQ solution.\nFurthermore, after 20 minutes, 2.2 ml of 10 % carbon tetrachloride solution (in olive oil) was administered to stomach of the rats of groups B-E. Neither OPQ nor carbon tetrachloride was administered to the rats of group A.\nAfter 24 hours from administration of carbon tetrachloride, blood was collected from abdominal aorta and serum was obtained by centrifugal separation.\nGPT, GOT and amount of total bilirubin were measured by clinical examination reagent (trademark: FUJI Dry Chemslide manufactured by Fuji Photo Film Co., Ltd.). The results are shown in Table 26 by average value of five rats."}, "[3]": {"tested_on": "D-galactosamine-induced liver diseases", "test": "Pharmacological effect on D-galactosamine-induced liver diseases", "type": "in vivo, SD rats", "conditions": "intraperitoneally twice, 1.2 ml of 0.4, 1.0, 2.0 or 3.0 mg/ml; serum 23 hours after D-galactosamine", "protocol": "Thirty SD rats (male, 7 weeks old, body weight: about 240 g; supplied by Japan Charles River Co.) were divided to six groups (A-F) each consisting of five rats. All rats were fasted for 18 hours and 1.2 ml of solutions containing 0.4 mg/ml, 1.0 mg/ml, 2.0 mg/ml, and 3.0 mg/ml of OPQ were intraperitoneally administered to rats of groups C, D, E and F, respectively, and furthermore, after lapse of 40 minutes, OPQ in the same doses as above were intraperitoneally administered to the rats, respectively. In these cases, the OPQ was dissolved in physiological saline and administered to the rats. For the rats of group B, 1.2 ml of physiological saline was intraperitoneally administered in place of the OPQ solution.\nFurthermore, after lapse of 20 minutes, 1.2 ml of a solution containing 0.2 mg/ml of D-galactosamine was subcutaneously injected to the rats of groups B-F. Neither OPQ nor D-galactosamine was administered to the rats of group A.\nAfter lapse of 23 hours from administration of D-galactosamine, blood was collected from abdominal aorta and serum was obtained by centrifugal separation.\nGPT, GOT and total amount of bilirubin were measured by clinical examination reagent (trademark: FUJI DRYCHEMSLIDE manufactured by Fuji Photo Film Co., Ltd.). The results are shown in Table 28 by average value of five rats."}, "[4]": {"conditions": "2 mg/kg rat twice intraperitoneally"}, "[5]": {"conditions": "5 mg/kg rat twice intraperitoneally"}, "[6]": {"conditions": "10 mg/kg rat twice intraperitoneally"}}}
{"compound": "O=C(O)c1cc(C(=O)O)c2c(n1)c1ncoc1c1cc(C(=O)O)[nH]c12", "note": "[OPQ, oxazopyrroloquinoline]", "values": [{"measurement": "LD50 at 336 h", "setting": "Acute toxicity test", "result": "~1000", "unit": "mg/kg"}, {"measurement": "death of mice", "setting": "male SPF-ICR mice; 0.1 - 0.4 g/kg intraperitoneally, 8 mice per group, 14 days", "result": "All mice survived"}, {"measurement": "death of mice", "setting": "male SPF-ICR mice; 0.8 g/kg intraperitoneally, 8 mice, 14 days", "result": "two mice died"}, {"measurement": "death of mice", "setting": "male SPF-ICR mice; 1.2 g/kg intraperitoneally, 8 mice, 14 days", "result": "six mice died"}, {"measurement": "death of mice", "setting": "male SPF-ICR mice; mouse, in vivo", "result": "no mice died"}, {"measurement": "death of mice", "setting": "male SPF-ICR mice; orally 1.0 g, 1.5 g or 2.0 g/kg mouse, 8 mice per group, 14 days", "result": "No mice died"}, {"measurement": "inhibition at 0.1 µM", "setting": "[1]; concentration 1x10^-7 M", "result": 51.9, "unit": "%"}, {"measurement": "inhibition at 0.2 µM", "setting": "[1]; concentration 2x10^-7 M", "result": 62.1, "unit": "%"}, {"measurement": "inhibition at 0.05 µM", "setting": "[1]; concentration 5x10^-8 M", "result": 39.3, "unit": "%"}, {"measurement": "GPT", "setting": "[2]; 2 mg/kg rat twice intraperitoneally, serum after 24 hours", "result": 1057, "unit": "U/l"}, {"measurement": "Total bilirubin", "setting": "[2]; [4]", "result": 1.2, "unit": "mg/dL"}, {"measurement": "GOT", "setting": "[2]; [4]", "result": 2402, "unit": "U/l"}, {"measurement": "Total bilirubin", "setting": "[2]; [5]", "result": 1.2, "unit": "mg/dL"}, {"measurement": "GPT", "setting": "[2]; [5]", "result": 553, "unit": "U/l"}, {"measurement": "GOT", "setting": "[2]; [5]", "result": 1892, "unit": "U/l"}, {"measurement": "Total bilirubin", "setting": "[2]; [6]", "result": 1.1, "unit": "mg/dL"}, {"measurement": "GPT", "setting": "[2]; [6]", "result": 650, "unit": "U/l"}, {"measurement": "GOT", "setting": "[2]; [6]", "result": 1907, "unit": "U/l"}, {"measurement": "GPT, GOT and total amount of bilirubin which increased by administration of D-galactosamine", "setting": "[3]", "result": "all sharply decreased"}]}
